# Data reported in PMC9176691, “Design, synthesis and biological evaluation of novel diosgenin–benzoic acid mustard hybrids with potential anti-proliferative activities in human hepatoma HepG2 cells” (Journal of Enzyme Inhibition and Medicinal Chemistry, 2022).
# Where two headings read alike, the source gives them in different places.
# Columns and labels:
# GES-1 cells = assay: MTT cytotoxicity assay, normal GES-1; type: cell-based, human; details: for IC50: Homo sapiens, read-out: IC50 GES-1
# HepG2 cells = assay: MTT anti-proliferative assay, HepG2; type: cell-based, human; details: read-out: IC50 HepG2
# MCF-7 cells = assay: MTT anti-proliferative assay, MCF-7; type: cell-based, human; details: Homo sapiens, read-out: IC50 MCF-7
# HeLa cells = assay: MTT anti-proliferative assay, HeLa; type: cell-based; details: Homo sapiens, read-out: IC50 HeLa
# [1] = MTT, 48 h treatment, average ± SD of three independent experiments
"IC50 (HepG2 cells; Homo sapiens, HepG2, 48 h, MTT, 48 h treatment, average ± SD of three independent experiments) [µM]",IC50 (HepG2 cells; [1]) [µM],"IC50 (MCF-7 cells; MCF7, MTT, 48 h treatment, average ± SD of three independent experiments) [µM]",IC50 (HeLa cells; [1]) [µM],SMILES,"IC50 (GES-1 cells; GES1, 48 h) [µM]","IC50 (HepG2 cells; Homo sapiens, HepG2, 48 h) [µM]","IC50 (MCF-7 cells; MCF7, 48 h) [µM]",IC50 (HeLa cells; 48 h) [µM],SI (GES-1 cells),"IC50 (GES-1 cells; GES1, MTT, 48 h treatment, normal gastric epithelial cells, average ± SD of three independent experiments) [µM]",SI (GES-1 cells; SI = IC50 for GES-1 cell line/IC50 for HepG2 cell line)
,,,,"C[C@H](CC[C@H]1OC2C[C@H]3[C@@H]4CC=C5C[C@@H](O)CC[C@]5(C)C4CC[C@]3(C)C2[C@@H]1C)COC(=O)c1ccc(N(CCCl)CCCl)cc1 (stereo partly drawn) [Compound 8, (22 R,25R)-3β-hydroxy-5-en-furostan-26–4-(bis(2-chloroethyl)amino)benzoate]",> 100,> 50,> 50,> 50,,,
,,,,"C[C@H](CC[C@H]1OC2C[C@H]3[C@@H]4CC=C5C[C@@H](OC(=O)c6ccc(N(CCCl)CCCl)cc6)CC[C@]5(C)C4CC[C@]3(C)C2[C@@H]1C)COC(=O)c1ccc(N(CCCl)CCCl)cc1 (stereo partly drawn) [Compound 9, (22 R,25R)-3β-((4-(bis(2-chloroethyl)amino)benzoyl)oxy)-5-en-furostan-26–4-(bis(2-chloroethyl)amino) benzoate]",> 100,> 50,> 50,> 50,,,
,,,,"CC(=O)O[C@H]1CC[C@@]2(C)C(=CC[C@@H]3C2CC[C@]2(C)C4C(C[C@@H]32)O[C@H](CC[C@@H](C)COC(=O)c2ccc(N(CCCl)CCCl)cc2)[C@H]4C)C1 (stereo partly drawn) [Compound 10, (22 R,25R)-3β-acetoxy-5-en-furostan-26–4-(bis(2-chloroethyl)amino)benzoate]",> 100,> 50,28.1 ± 1.52,> 50,,,
,,,,"CC(=O)OC1CCC2(C)C(=CCC3C2CCC2(C)C3CC3OC(CCC(C)C(=O)NCCNC(=O)c4ccc(N(CCCl)CCCl)cc4)C(C)C32)C1 [Compound 14a, (22 R,25R)-(2-aminoethyl-4-(bis(2-chloroethyl)amino)benzamido)-3β-acetoxy-5-en-furostan-26-amide]",> 100,10.2 ± 1.01,48.3 ± 2.21,17.2 ± 2.81,,,
,,,,"CC(=O)OC1CCC2(C)C(=CCC3C2CCC2(C)C3CC3OC(CCC(C)C(=O)NCCCNC(=O)c4ccc(N(CCCl)CCCl)cc4)C(C)C32)C1 [Compound 14b, (22 R,25R)-(3-aminopropyl-4-(bis(2-chloroethyl)amino)benzamido)-3β-acetoxy-5-en-furostan-26-amide]",47 ± 2.34,25.3 ± 1.4,30.3 ± 2.08,> 100,1.86,,
,,,,"CC(=O)OC1CCC2(C)C(=CCC3C2CCC2(C)C3CC3OC(CCC(C)C(=O)N4CCN(C(=O)c5ccc(N(CCCl)CCCl)cc5)CC4)C(C)C32)C1 [Compound 14e, (22 R,25R)-(1-piperazinyl-4-(bis(2-chloroethyl)amino)benzamido)-3β-acetoxy-5-en-furostan-26-amide]",58.8 ± 1.34,19.3 ± 1.29,42.7 ± 2.25,> 50,3.05,,
,,,,"CC(CCC1OC2CC3C4CC=C5CC(O)CCC5(C)C4CCC3(C)C2C1C)C(=O)NCCNC(=O)c1ccc(N(CCCl)CCCl)cc1 [Compound 15a, (22 R,25R)-(2-aminoethyl-4-(bis(2-chloroethyl)amino)benzamido)-3β-hydroxy-5-en-furostan-26-amide]",83.2 ± 3.12,13.2 ± 1.01,> 100,> 50,6.28,,
,,,,"CC(CCC1OC2CC3C4CC=C5CC(O)CCC5(C)C4CCC3(C)C2C1C)C(=O)NCCCNC(=O)c1ccc(N(CCCl)CCCl)cc1 [Compound 15b, (22 R,25R)-(3-aminopropyl-4-(bis(2-chloroethyl)amino)benzamido)-3β-hydroxy-5-en-furostan-26-amide]",> 100,14 ± 1.15,37.2 ± 2.23,49.8 ± 2.13,>7.14,,
,,,,"CC(CCC1OC2CC3C4CC=C5CC(O)CCC5(C)C4CCC3(C)C2C1C)C(=O)N1CCN(C(=O)c2ccc(N(CCCl)CCCl)cc2)CC1 [Compound 15e, (22 R,25R)-(1-piperazinyl-4-(bis(2-chloroethyl)amino)benzamido)-3β-hydroxy-5-en-furostan-26-amide]",> 100,14 ± 1.12,> 50,28.5 ± 2.13,,,
,,,,"CC(CCC1OC2CC3C4CC=C5CC(O)CCC5(C)C4CCC3(C)C2C1C)C(=O)N1CCCN(C(=O)c2ccc(N(CCCl)CCCl)cc2)CC1 [Compound 15f, (22 R,25R)-(4–(1-homopiperazinyl)-4-(bis(2-chloroethyl)amino)benzamido)-3β-hydroxy-5-en-furostan-26-amide]",> 100,18.9 ± 0.93,> 100,> 50,>5.28,,
32.6,33.9 ± 1.37,23.9 ± 1.34,55.1 ± 2.11,C[C@@H]1CC[C@@]2(OC1)O[C@H]1C[C@H]3[C@@H]4CC=C5C[C@@H](O)CC[C@]5(C)[C@H]4CC[C@]3(C)[C@H]1[C@@H]2C [Diosgenin],,,,,,> 100,>2.95
,,,,"CO[C@@]12[C@H](COC(N)=O)C3=C(C(=O)C(C)=C(N)C3=O)N1C[C@@H]1N[C@@H]12 [Mitomycin C, reference compound]",23.4 ± 1.11,32.6 ± 1.22,16.7 ± 1.02,22 ± 1.12,0.72,,
